Source: US20250352548A1, “BTK Reducing Molecules for Treatment of Cancers and Immune System Disorders” (Accutar Biotechnology, Inc., priority 2022, published 2025)

Tests used:
[1] = tested on: engineered REC1 PLCγ2^L845F knock-in tumors; test: Mouse xenograft tumor model, REC1 PLCγ2^L845F knock-in; assay type: in vivo; details: for TGI: 14 days after administration, L845F tumors
Procedure: (§1) Parental REC1 cells (ATCC), engineered REC1 PLCγ2^S707Y cells, and engineered REC-1 PLCγ2^L845F cells, as described in Example 1, were maintained in vitro as monolayer culture in RPMI1640 medium supplemented with 10% fetal bovine serum and 1× Penicillin Streptomycin at 37° C. in an atmosphere of 5% CO2 in air. The tumor cells were routinely subcultured twice weekly. The cells growing in an exponential growth phase were harvested and counted for tumor inoculation. Each mouse was inoculated subcutaneously at the armpit of the right flank with 5×10^6 tumor cells in 0.1 mL of PBS mixed with 0.1 mL matrigel for tumor development. Treatment of the BTK degrader of Formula I-D (1.5 mg/kg, 3 mg/kg, 6 mg/kg, or 15 mg/kg, PO), Ibrutinib (25 mg/kg, PO), or vehicle (PO) started when the average tumor size reached approximately 100 mm^3. Mice were assigned into groups using an Excel-based randomization software performing stratified randomization based upon their tumor volumes. Tumor sizes were measured 3 times weekly in two dimensions using a caliper, and the volume was expressed in mm^3 using the formula: V=0.5 a×b^2 where a and b are the long and short diameters of the tumor, respectively. Tumor growth inhibition (TGI) was calculated for each group using the formula: TGI (%)=[1−(Ti−T0)/(Vi−V0)]×100; Ti is the average tumor volume of a treatment group on a given day, T0 is the average tumor volume of the treatment group on the first day of treatment, Vi is the average tumor volume of the vehicle control group on the same day with Ti, and V0 is the average tumor volume of the vehicle group on the first day of treatment.

[2] = tested on: engineered REC-1 PLCγ2^L845F cells; test: Cancer cell growth in vitro, CellTiter-Glo, 6 days; assay type: cell-based; details: 6 days after administration, compared to Ibrutinib (FIG. 1C)
Procedure: (§2) Parental REC1 cells were obtained from the American Type Culture Collection (ATCC). PLCγ2 gene in REC-1 cell line was edited using the CRISPR-Cas9 technology to create a S to Y point mutation at residue 707 of PLCγ2 protein, or L to F point mutation at residue 845 of PLCγ2 protein. For gene editing, first, gRNA complex of PLCγ2 S707Y or PLCγ2 L845F was prepared with Alt-R CRISPR-Cas9 tracrRNA and crRNA PLCγ2 S707Y (5′-[…]-3′) or PLCγ2 L845F (5′-[…]-3′) (IDT-Integrated DNA Technologies), and then ribonucleoprotein (RNP) complex of PLCγ2 S707Y or PLCγ2 L845F was prepared with respective gRNA complex and Alt-R S.p. Cas9 Nuclease V3 (IDT-Integrated DNA Technologies). […]
(§3) Parental REC1 cells (ATCC), engineered REC1 PLCγ2^S707Y cells, or engineered REC-1 PLCγ2^L845F cells, were plated in 96-well plates at 8,000 cells/well in 90 μl of RPMI1640 growth medium containing 10% heat-inactivated FBS and 1× Penicillin Streptomycin, and then incubated at 37° C. overnight. […] The plates were then incubated at room temperature for 10 minutes and luminescence was recorded by EnSpire plate reader (PerkinElmer).

[3] = tested on: engineered REC1 PLCγ2^S707Y cells; test: Cancer cell growth in vitro, CellTiter-Glo, 6 days; assay type: cell-based; details: 6 days after administration, compared to Ibrutinib (FIG. 1B)
Procedure: as §2, §3

[4] = tested on: engineered REC1 PLCγ2^S707Y knock-in tumors; test: Mouse xenograft tumor model, REC1 PLCγ2^S707Y knock-in; assay type: in vivo; details: for TGI: 14 days after administration, S707Y tumors
Procedure: as §1

| SMILES | TGI ([1]; 3 mg/kg PO) | TGI ([1]; 6 mg/kg PO) | TGI ([1]; 15 mg/kg PO) | tumor growth inhibition vs Ibrutinib ([1]; REC-1 PLCγ2^L845F knock-in mice, PO, 14 days after administration (FIG. 2C)) | cell growth inhibition [2] | cell growth inhibition [3] | TGI ([4]; 3 mg/kg PO) | TGI ([4]; 6 mg/kg PO) | TGI ([4]; 15 mg/kg PO) | tumor growth inhibition vs Ibrutinib ([4]; REC1 PLCγ2^S707Y knock-in mice, PO, 14 days after administration (FIG. 2B)) | TGI ([1]; Ibrutinib 25 mg/kg PO) | TGI ([4]; Ibrutinib 25 mg/kg PO) |
| --- | --- | --- | --- | --- | --- | --- | --- | --- | --- | --- | --- | --- |
| COc1ccc(F)cc1C(=O)NCc1ccc(-c2nn(-c3ccc(N4CCC(CN5CCN(c6ccc7c(c6)CN(C6CCC(=O)NC6=O)C7=O)CC5)CC4)c(F)c3)c3ncnc(N)c23)cc1 (stereo not drawn) [Formula I-D] | 63% | 81% | 88% | significantly inhibited tumor growth | significantly inhibited cell growth | significantly inhibited cell growth | 61% | 74% | 86% | significantly inhibited tumor growth |  |  |
| C=CC(=O)N1CCC[C@@H](n2nc(-c3ccc(Oc4ccccc4)cc3)c3c(N)ncnc32)C1 [Ibrutinib, reference compound] |  |  |  |  |  |  |  |  |  |  | 12% | 5% |
